The source made the active and inactive calls. Bounds are passed on as bounds.

The record followed here is ChEMBL document CHEMBL1201862, “PubChem BioAssay data set” (2004).

Assay [1] in a line: Counterscreen for inhibitors of Trypanosoma brucei methionyl tRNA synthetase (MetRS): Luminescence-based cell-based high throughput dose response assay to identify compounds that are cytotoxic to Jurkat human T lymphocyte cells. The class given is functional.
Assay [2] concerns the target T1, Methionyl-tRNA synthetase, putative (Trypanosoma brucei brucei, UniProt Q38C91).
T1 sequence (Q38C91 whole entry): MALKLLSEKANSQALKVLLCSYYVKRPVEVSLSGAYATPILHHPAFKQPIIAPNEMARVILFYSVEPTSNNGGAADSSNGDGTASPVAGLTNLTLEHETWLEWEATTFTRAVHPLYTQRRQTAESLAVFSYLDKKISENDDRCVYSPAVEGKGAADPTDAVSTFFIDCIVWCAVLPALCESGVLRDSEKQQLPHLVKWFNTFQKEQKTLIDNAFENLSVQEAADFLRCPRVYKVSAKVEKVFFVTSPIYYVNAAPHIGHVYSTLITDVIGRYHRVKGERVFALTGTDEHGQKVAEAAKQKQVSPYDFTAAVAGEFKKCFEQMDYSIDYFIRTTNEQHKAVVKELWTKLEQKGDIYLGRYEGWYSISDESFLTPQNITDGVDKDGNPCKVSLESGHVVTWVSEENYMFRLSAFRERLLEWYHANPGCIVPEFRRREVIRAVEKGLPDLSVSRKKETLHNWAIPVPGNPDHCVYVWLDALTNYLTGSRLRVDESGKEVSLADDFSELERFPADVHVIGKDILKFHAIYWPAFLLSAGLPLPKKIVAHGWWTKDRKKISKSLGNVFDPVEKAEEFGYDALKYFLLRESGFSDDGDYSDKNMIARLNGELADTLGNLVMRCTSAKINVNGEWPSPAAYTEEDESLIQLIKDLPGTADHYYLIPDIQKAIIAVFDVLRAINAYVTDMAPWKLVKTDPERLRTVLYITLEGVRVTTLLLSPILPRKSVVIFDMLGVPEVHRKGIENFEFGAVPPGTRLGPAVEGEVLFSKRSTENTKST
Format: functional, Trypanosoma brucei brucei strain 927/4 GUTat10.1.

Assay [3] concerns the target T1, Methionyl-tRNA synthetase, putative. Format: functional, Trypanosoma brucei brucei strain 927/4 GUTat10.1. The source holds these as a separate data set.
Assay [4] deals with T2, Adenosylmethionine-8-amino-7-oxononanoate aminotransferase (Mycobacterium tuberculosis, UniProt P9WQ81).
T2 sequence (P9WQ81 whole entry): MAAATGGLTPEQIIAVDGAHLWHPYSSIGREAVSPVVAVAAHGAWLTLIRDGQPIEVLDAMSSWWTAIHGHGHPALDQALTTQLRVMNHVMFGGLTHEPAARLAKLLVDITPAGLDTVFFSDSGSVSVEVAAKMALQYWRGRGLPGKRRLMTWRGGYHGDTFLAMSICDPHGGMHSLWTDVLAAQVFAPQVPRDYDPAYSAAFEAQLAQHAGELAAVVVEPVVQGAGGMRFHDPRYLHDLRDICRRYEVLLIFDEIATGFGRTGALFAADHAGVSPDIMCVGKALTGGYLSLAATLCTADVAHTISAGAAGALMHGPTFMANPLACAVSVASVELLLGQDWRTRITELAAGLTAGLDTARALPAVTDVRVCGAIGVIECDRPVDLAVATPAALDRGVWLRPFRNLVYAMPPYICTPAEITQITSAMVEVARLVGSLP
Kind of assay: Mycobacterium tuberculosis BioA enzyme inhibitor Measured in Biochemical System Using Plate Reader - 2163-02_Inhibitor_Dose_CherryPick_Activity. The class given is functional, Mycobacterium tuberculosis UT205.

The next assay addresses Large T antigen (Simian virus 40, UniProt P03070). The class given is functional, Betapolyomavirus macacae.
Assay [5] deals with T3, Sentrin-specific protease 8 (Homo sapiens, UniProt Q96LD8).
T3 sequence (Q96LD8 whole entry): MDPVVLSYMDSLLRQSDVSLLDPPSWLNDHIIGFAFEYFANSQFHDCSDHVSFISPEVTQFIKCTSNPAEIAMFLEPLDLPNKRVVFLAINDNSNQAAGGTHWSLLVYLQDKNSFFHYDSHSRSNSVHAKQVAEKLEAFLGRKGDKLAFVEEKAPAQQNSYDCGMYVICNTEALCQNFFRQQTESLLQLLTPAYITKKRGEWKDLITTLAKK
The class given is functional.

Assay [6] has as its target T3, Sentrin-specific protease 8. The class given is functional. This is another data set of the same source.
The target of assay [7] is T4, Long-chain-fatty-acid--AMP ligase FadD28 (Mycobacterium tuberculosis, UniProt P9WQ59).
T4 sequence (P9WQ59 whole entry): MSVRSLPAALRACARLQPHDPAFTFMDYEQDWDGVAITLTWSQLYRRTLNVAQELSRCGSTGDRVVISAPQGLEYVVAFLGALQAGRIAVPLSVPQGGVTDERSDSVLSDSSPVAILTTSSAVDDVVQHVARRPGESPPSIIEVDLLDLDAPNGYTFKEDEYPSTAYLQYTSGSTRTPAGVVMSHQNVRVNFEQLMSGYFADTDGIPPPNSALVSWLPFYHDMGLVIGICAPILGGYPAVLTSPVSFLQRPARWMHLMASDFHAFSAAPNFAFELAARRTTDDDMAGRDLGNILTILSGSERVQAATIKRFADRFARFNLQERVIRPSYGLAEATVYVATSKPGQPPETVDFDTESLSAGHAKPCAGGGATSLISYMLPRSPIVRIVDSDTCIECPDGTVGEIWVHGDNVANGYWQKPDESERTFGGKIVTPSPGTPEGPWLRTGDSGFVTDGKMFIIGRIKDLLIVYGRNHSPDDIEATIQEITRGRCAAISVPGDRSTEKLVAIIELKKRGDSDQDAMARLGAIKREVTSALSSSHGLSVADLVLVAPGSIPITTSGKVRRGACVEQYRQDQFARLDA
Kind of assay: Fluorescence polarization aasay to screen for inhibitors that compete for the binding of FadD28 to a bisubstrate Measured in Biochemical System Using Plate Reader - 2147-01_Inhibitor_Dose_CherryPick_Activity. Format: functional, Mycobacterium tuberculosis H37Rv.

Assay [8] has as its target Eukaryotic translation initiation factor 4E (Mus musculus, UniProt P63073). Kind of assay: eIF4E–eIF4G protein interaction inhibitors, dose response, biochemical, TR-FRET (AID 855).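 Also: potency for disrupting eIF4E binding to eIF4GI seen as loss of FRET.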 The class given is functional. A general note: TR-FRET usually uses a lanthanide donor and a delayed reading to cut background.
Assay [9] can be described thus: Fluorescence-based cell-based high throughput dose response assay for inhibitors of the interaction of nucleotide-binding oligomerization domain containing 2 (NOD2) and the receptor-interacting serine-threonine kinase 2 (RIPK2). The class given is functional, Homo sapiens.
The nature of assay [10]: CRF-BP/CRF-R2 complex antagonists, dose response, cell-based, uHTS hits, 384-well (AID 651639). The conditions noted are these: read-out: IC50_Mean. Format: functional, Homo sapiens.
In assay [11] the target is T5, Corticotropin-releasing factor receptor 2/Corticotropin-releasing factor-binding protein (Homo sapiens, UniProt P24387+Q13324).
T5 sequence (Q13324 whole entry): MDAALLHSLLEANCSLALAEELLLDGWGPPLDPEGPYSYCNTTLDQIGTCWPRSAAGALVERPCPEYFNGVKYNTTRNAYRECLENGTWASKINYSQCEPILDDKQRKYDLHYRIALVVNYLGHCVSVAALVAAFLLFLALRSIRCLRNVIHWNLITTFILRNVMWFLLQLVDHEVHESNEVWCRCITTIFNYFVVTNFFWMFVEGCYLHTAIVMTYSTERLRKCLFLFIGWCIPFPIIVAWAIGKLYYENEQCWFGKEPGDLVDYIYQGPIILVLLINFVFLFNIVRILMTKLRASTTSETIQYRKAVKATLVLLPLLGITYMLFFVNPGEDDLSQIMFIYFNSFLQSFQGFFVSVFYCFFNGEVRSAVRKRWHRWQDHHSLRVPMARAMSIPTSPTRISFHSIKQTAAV
T5 sequence (P24387 whole entry): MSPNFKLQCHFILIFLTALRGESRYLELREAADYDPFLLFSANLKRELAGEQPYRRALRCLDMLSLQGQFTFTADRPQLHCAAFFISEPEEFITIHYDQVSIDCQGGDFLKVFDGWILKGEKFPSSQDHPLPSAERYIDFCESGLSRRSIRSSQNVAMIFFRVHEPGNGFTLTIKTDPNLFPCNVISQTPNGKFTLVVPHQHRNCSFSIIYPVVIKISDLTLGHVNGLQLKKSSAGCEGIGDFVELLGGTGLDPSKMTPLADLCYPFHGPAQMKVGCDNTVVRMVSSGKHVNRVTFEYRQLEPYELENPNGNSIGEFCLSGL
Briefly: Dose Response confirmation of uHTS hits for small molecule antagonists of the CRF-binding protein and CRF-R2 receptor complex. The class given is functional. The conditions noted are these: read-out: IC50_Mean.

Assay [12] concerns the target T5, Corticotropin-releasing factor receptor 2/Corticotropin-releasing factor-binding protein. Briefly: activators of CRF receptor 2 with binding protein – uHTS hits, confirmation (AID 602473). The class given is functional. The conditions noted are these: read-out: EC50_Mean.
In assay [13] the target is T6, Heat shock factor protein 1 (Mus musculus, UniProt P38532).
T6 sequence (P38532 whole entry): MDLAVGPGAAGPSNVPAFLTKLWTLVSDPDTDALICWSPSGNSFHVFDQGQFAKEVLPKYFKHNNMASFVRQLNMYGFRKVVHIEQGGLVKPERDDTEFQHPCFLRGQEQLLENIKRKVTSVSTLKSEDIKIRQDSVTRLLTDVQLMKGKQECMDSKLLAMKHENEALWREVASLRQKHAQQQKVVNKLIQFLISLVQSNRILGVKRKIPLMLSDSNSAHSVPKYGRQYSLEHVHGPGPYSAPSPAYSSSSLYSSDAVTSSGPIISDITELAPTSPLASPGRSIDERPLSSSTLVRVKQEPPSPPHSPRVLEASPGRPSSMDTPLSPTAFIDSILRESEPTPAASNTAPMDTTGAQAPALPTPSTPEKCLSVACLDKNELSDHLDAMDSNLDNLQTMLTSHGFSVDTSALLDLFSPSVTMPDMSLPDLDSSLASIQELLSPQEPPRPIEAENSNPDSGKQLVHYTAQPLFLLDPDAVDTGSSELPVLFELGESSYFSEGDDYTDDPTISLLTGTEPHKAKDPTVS
Kind of assay: inhibition of MG132-induced HSE-luciferase signal, confirmation, cell-based, NIH3T3, luminescence, dose retest (AID 2382).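 Also: NIH3T3 fibroblasts with HSF1-driven luciferase reporter stressed by proteasome inhibitor MG132; luminescence from HSF1-driven luciferase expression after 8 hours of MG132 stress.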 Format: functional.

The target of the next assay is Paired box protein Pax-8 (Homo sapiens, UniProt Q06710). Kind of assay: inhibitors of PAX8-driven TPO luciferase reporter, dose response, RMG-I cells, cherry-pick (AID 687027).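 Also: luciferase reporter driven by Pax8 target thyroperoxidase promoter measured by SteadyGlo luminescence.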 Format: functional, cell-based.
Assay [14] is described as follows: Luminescence Cell-Based Dose Confirmation HTS to Identify Activators of 5'UTR Stem-Loop Driven Alpha-Synuclein mRNA Translation in H4 Neuroglioblastoma Cells. [Related pubchem assays: 1829 (Project Summary), 1814 (Primary HTS)]. The class given is functional.
The subject of another assay is H4. Kind of assay: Luminescence Cell-Based Dose Response HTS to Identify Activators of 5'UTR Stem-Loop Driven Prion Protein mRNA Translation in H4 Neuroglioblastoma Cells. [Related pubchem assays: 1829 (Project Summary), 1814 (Primary HTS)]. The class given is functional. The conditions noted are these: Homo sapiens.
Assay [15] is described as follows: Luminescence Cell-Based Dose Response HTS to Identify Activators of Luciferase Translation or Activity in H4 […] Cells. [Related pubchem assays: 1829 (Project Summary), 1814 (Primary HTS)]. The class given is functional.
A short description of assay [16]: microbe, parasite or virus in culture. Format: functional. The settings on record: Mycobacterium tuberculosis.

Paired box protein Pax-8, sequence (Q06710 whole entry): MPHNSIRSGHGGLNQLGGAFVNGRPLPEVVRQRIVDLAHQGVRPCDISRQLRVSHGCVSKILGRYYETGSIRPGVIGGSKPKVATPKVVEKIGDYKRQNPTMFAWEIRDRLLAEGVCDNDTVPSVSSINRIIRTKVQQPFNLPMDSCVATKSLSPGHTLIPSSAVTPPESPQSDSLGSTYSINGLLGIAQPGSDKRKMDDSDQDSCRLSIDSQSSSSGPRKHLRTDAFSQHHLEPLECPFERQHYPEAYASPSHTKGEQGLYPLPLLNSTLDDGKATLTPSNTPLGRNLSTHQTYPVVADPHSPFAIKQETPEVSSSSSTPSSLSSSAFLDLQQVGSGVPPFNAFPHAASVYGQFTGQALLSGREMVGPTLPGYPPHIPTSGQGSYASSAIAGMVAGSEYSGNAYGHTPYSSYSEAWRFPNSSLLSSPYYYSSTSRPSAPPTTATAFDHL
Large T antigen, sequence (P03070 whole entry): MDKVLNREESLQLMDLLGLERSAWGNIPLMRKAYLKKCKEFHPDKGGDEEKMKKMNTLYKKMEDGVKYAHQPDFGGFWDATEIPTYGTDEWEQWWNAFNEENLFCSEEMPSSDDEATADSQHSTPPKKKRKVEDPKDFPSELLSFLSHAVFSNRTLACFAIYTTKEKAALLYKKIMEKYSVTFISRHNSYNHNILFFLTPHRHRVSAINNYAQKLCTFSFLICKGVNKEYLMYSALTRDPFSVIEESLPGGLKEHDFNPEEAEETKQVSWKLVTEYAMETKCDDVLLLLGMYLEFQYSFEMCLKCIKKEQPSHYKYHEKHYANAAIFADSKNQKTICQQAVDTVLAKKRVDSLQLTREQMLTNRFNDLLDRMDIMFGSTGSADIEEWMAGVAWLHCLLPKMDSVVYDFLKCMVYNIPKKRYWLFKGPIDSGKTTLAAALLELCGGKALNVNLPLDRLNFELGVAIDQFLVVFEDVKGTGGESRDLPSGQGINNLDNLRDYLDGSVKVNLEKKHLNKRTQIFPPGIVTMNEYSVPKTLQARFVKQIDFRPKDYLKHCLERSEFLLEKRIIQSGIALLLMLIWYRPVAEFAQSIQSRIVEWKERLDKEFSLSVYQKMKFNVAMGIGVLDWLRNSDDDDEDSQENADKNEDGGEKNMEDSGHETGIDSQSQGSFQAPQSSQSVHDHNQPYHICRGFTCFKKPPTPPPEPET
Eukaryotic translation initiation factor 4E, sequence (P63073 whole entry, the tested form may be a part): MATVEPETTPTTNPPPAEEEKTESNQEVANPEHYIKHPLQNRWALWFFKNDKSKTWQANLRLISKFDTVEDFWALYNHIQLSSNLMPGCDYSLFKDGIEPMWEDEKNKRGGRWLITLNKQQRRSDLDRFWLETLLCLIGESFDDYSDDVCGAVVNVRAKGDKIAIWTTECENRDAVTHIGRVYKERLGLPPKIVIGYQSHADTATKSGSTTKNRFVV

As to `O=C(CSc1nc2cc3ccccc3cc2[nH]1)Nc1ccc(F)cc1`, the IC50 was 51.7 µM (inactive) in [1], 119 µM (inactive) in [2] and 100 µM (inactive) in assay [3].

The AC50 is the concentration giving half of the maximal activity seen. As to `Cc1ccccc1-n1c(SCC(=O)N(C)C2CCS(=O)(=O)C2)nc2ccccc2c1=O` (configuration not stated), in [4], the AC50 is 2.39 µM (active).

As for `CCOc1ccc(N2Nc3[nH]nc(N)c3N2)cc1`, the IC50 on Large T antigen is 18 µM (active); in assay [5] it was 52.3 µM (active); in assay [6], 40.6 µM (active).

With `COc1cccc(NC(=O)Nc2ccc(C(C)(C)C)cc2)c1`, the AC50 in assay [7] was > 100 µM (inactive). Also, in assay [8], the IC50 is 50 µM (inactive).

As to `CC1=CC2OC3CC4OC(=O)C=CC=CC(C(C)O)OCC(O)C(C)CC(=O)OCC2(CC1O)C4(C)C31CO1` (configuration not stated), the IC50 in assay [9] is 49.8 µM (inactive).

Take `COc1ccc(Cc2c(-c3ccc(OC)c(OC)c3)nc3ccc(C)cn23)c(C)c1`: in assay [4], the AC50 was 2.73 µM (active).

With `COC(=O)C[C@H]1CC[C@@H]2[C@H](COC[C@@H](O)CN2C(=O)Nc2cccc(F)c2)O1`, the AC50 in assay [4] was 13.7 µM (active).

`COc1ccc(Cl)cc1NC(=O)C(C)NC(c1ccccc1)c1ccccc1` (configuration not stated): the figures for the IC50 in assay [10] and in [11] were > 20 µM (inactive) and 1.14 µM (active), respectively. For the same compound, the EC50 in assay [12] is > 53 µM (inactive).

As to `CC(=O)c1cccc(NC(S)=NC2CCCCCCC2)c1`, in [7], the AC50 was > 100 µM (inactive).

`O=C(Nc1cc(-c2ccccc2)sc1C(=O)O)c1cccc(F)c1`: the IC50 was 14.2 µM (active) in assay [10] and 23.5 µM (active) in assay [11]. Also, the EC50 in [12] is > 53 µM (inactive).

As to `C[C@@H]1C=C(C(=O)NCc2nc3ccccc3[nH]2)O[C@H](OCc2ccc(CO)cc2)C1`, the IC50 was 83.3 µM (inactive) in [1], 2.04 µM (active) in assay [2] and 1.47 µM (active) in assay [3].

In the case of `OC(c1cc(Cl)cc(Cl)c1)c1nc(-c2ccccc2F)c[nH]1` (configuration not stated), the IC50 in assay [1] is 74.4 µM (inactive); in [2], 9.87 µM (active); in [3], 6.33 µM (active).

Take `COc1nn(-c2ccccc2)c(=O)c(Cl)c1Cl`: the EC50 in assay [13] was 9.89 µM (active); in assay [14], > 120 µM (not active); in the assay on H4, > 120 µM (not active); in assay [15] it was > 120 µM (not active). Also, the AC50 on Paired box protein Pax-8 was 6.72 µM (active). Moreover, in assay [9] (Homo sapiens), the IC50 is 4.58 µM (active). The CC50 in assay [16] is 8.79 µM (active).
